Test results from patent US6117833A, “Bleaching compositions and method for bleaching substrates directly with air” (priority 1998, dated 2000).
“Also recorded” adds a separate entry of the source.

Assays:
[1] = Bleaching on BC-1 by 4-Ethylbenzaldehyde with various initiators; design: key to Δ(ΔR), #1 / Δ(ΔR), #2 / Δ(ΔR), #3 / Δ(ΔR), Average / ΔΔRave: Δ(ΔR): reflectance change of stained cloth relative to buffer ΔR; conditions: for Δ(ΔR), Average / Δ(ΔR), #1 / Δ(ΔR), #2 / Δ(ΔR), #3: 1 mM, σav = 0.4; for Δ(ΔR), Average: average of #1-#3; for Δ(ΔR), #1: run #1; for Δ(ΔR), #2: run #2; for Δ(ΔR), #3: run #3; for cleaning / bleaching (in words): initiator alone or 4-EBA alone
Protocol: A series of experiments were conducted to evaluate the bleaching effectiveness of NHPI and related imides. Table IV reports the effectiveness on tea stained cloth swatches by various imide initiators in combination with 4-ethylbenzaldehyde.
Value for Carbonate Buffer = ΔR
Value for Initiator = Δ(ΔR)
Value for 4EBA + Initiator = Δ(ΔR)
* = Statistically significant bleaching over buffer alone (σav

[2] = Bleaching of tea-stained (BC-1) swatches by aldehyde + NHPI + air in Tergotometer (change in reflectance); conditions: aldehyde 15 mM, NHPI 1 mM, carbonate buffer, 30 min, 25° C., 460 nm, average of 2 values (6 for * = Exceptional Bleaching Aldehyde)
Protocol: A general outline of the essential steps in our experimental protocol are shown below.
a) Measure the initial reflectance of the swatches (Ri).
b) Saturate the wash solution with air.
c) Wash, rinse and dry the swatches.
d) Measure the final reflectance of the swatches (Rf).
All work was conducted in a Tergotometer with 2L stainless steel pots. The swatches were dried flat on a rack in a Kenmore dryer. […] The conditions utilized were as follows:
Initiator N-Hydroxyphthalimide (NHPI, 1 mM)
Aldehyde Aldehyde (15 mM)
Each Tergotometer Pot was filled with 1 liter of milli-Q-water containing carbonate buffer solution which was saturated for 15 minutes with air under agitation at 25° C. Tea stained (BC-1) swatches were washed for 30 minutes in the presence of aldehyde, air and NHPI at pH=8 (25° C.). The corresponding controls (buffer alone, NHPI alone and aldehyde alone) were performed simultaneously. All swatches were rinsed twice for 3 minutes with agitation at 25° C. and dried flat on a rack in a Kenmore with soft heat for 30 minutes.
To quantify the degree of stain removal, the reflectance of 4 stained swatches (4 per pot) were measured before and after washing using a Gardner reflectometer (Model #2000) set at 460*nm (*UV filter). The change in reflectance (ΔR) was determined by taking the difference of the swatch before and after each washing. The standard deviation (σ) and ΔΔRave was assigned to each experimental group.
Rl =Initial reflectance of stained swatch before washing.
Rf =Final reflectance of stained swatch after washing.
ΔRaldehyde system+control -ΔRcontrol =ΔΔR
ΔΔRave =Represents the average bleaching by the aldehyde system.
In general, the larger the ΔΔRave value, the greater the bleaching and cleaning.
(σ)=[Σ^n aj -aa)^2 /N-I]^0.5
Σ^n =sum (aj -aa)^2 per measurement
N=number of measurements=8

Compound: O=C1CCC(=O)N1O [NHSI]
- Δ(ΔR), Average ([1]; initiator alone): 0.0
- Δ(ΔR), #1 ([1]; initiator alone): 0.0
- Δ(ΔR), #2 ([1]; initiator alone): 0.0
- Δ(ΔR), #3 ([1]; initiator alone): 0.0

Compound: CC1(C)CCCC(C)(C)N1[O] [TEMPO]
- Δ(ΔR), Average ([1]; initiator alone): 1.8
- Δ(ΔR), #1 ([1]; initiator alone): 1.8
- Δ(ΔR), #2 ([1]; initiator alone): 1.8
- Δ(ΔR), #3 ([1]; initiator alone): 1.9

Compound: O=C1CC(S(=O)(=O)O)C(=O)N1O (centres unmarked) [NHSISA]
- Δ(ΔR), Average ([1]; initiator alone): 0.2
- Δ(ΔR), #1 ([1]; initiator alone): 0.2
- Δ(ΔR), #2 ([1]; initiator alone): 0.5
- Δ(ΔR), #3 ([1]; initiator alone): 0.0

Compound: CCc1ccc(C=O)cc1 [4-Ethylbenzaldehyde]
- ΔΔRave on BC-1 at pH = 8 [2]: 11.5
- cleaning / bleaching (in words) [1]: small and inconsistent; also recorded: do not effectively clean stubborn tea stains

Compound: O=C1C=CC(=O)N1O [NHMI]
- Δ(ΔR), Average ([1]; initiator alone): 0.3
- Δ(ΔR), #1 ([1]; initiator alone): 0.6
- Δ(ΔR), #2 ([1]; initiator alone): 0.1
- Δ(ΔR), #3 ([1]; initiator alone): 0.3

Compound: O=C1c2ccccc2C(=O)N1O [NHPI, N-hydroxyphthalimide]
- ΔΔRave ([1]; initiator alone): -0.2
- cleaning / bleaching (in words) [1]: did not provide a cleaning benefit
- Δ(ΔR), Average ([1]; initiator alone): -0.3
- Δ(ΔR), #1 ([1]; initiator alone): -0.1
- Δ(ΔR), #2 ([1]; initiator alone): 0.1
- Δ(ΔR), #3 ([1]; initiator alone): -0.7

Compound: O=Cc1ccc(C(F)(F)F)cc1 [4-Trifluoromethylbenzaldehyde]
- ΔΔRave on BC-1 at pH = 8 [2]: 0.3

Compound: O=Cc1ccccc1C(F)(F)F [2-Trifluoromethylbenzaldehyde]
- ΔΔRave on BC-1 at pH = 8 [2]: 10.2
